# Measurements taken from ChEMBL document CHEMBL1147631, “Aminomethylpyrimidines as novel DPP-IV inhibitors: a 10(5)-fold activity increase by optimization of aromatic substituents” (Bioorg Med Chem Lett, 2004).
# Biological target: Dipeptidyl peptidase 4 (Homo sapiens, UniProt P27487)
# Assay: Inhibitory activity against Dipeptidylpeptidase IV mediated cleavage of Ala-Pro-7-amido-4-tri-fluoromethylcoumarin in a fluorogenic assay
# Format: functional
# Sequence of Dipeptidyl peptidase 4 (P27487 whole entry): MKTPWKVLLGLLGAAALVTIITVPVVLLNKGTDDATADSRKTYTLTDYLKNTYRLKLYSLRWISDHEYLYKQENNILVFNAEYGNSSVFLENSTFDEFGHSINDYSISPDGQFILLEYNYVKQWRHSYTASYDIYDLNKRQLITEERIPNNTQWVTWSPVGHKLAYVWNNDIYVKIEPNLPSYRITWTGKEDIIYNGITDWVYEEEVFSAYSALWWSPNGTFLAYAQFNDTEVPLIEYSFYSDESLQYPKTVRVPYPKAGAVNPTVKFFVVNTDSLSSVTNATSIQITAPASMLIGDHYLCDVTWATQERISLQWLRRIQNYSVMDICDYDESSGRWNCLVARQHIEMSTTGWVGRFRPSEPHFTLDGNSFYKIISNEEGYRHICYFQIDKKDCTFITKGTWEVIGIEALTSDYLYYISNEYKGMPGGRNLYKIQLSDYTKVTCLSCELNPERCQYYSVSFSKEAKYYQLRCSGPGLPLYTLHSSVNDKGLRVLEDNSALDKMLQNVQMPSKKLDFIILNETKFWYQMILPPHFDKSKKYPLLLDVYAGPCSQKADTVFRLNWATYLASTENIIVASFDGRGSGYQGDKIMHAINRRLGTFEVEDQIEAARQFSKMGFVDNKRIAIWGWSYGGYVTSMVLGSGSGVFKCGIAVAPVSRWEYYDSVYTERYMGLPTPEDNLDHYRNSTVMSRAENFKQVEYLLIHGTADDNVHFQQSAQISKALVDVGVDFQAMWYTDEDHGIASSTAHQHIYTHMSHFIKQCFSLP
row,Structure (SMILES),IC50 [nM]
1,NCc1c(N)nc(-c2ccccc2F)nc1-c1ccc(Cl)cc1Cl,47
2,NCc1c(N)nc(-c2ccccc2)nc1-c1cccc(C(F)(F)F)c1,170000
3,NCc1c(N)nc(-c2cccc(C(F)(F)F)c2)nc1-c1ccc(Cl)cc1Cl,130
4,COc1cccc(-c2nc(-c3ccccc3)nc(N)c2CN)c1,80000
5,NCc1c(N)nc(-c2ccccc2)nc1-c1ccc(Cl)cc1,1400
6,Cc1ccccc1-c1nc(-c2ccccc2)nc(N)c1CN,1500
7,NCc1c(N)nc(-c2cccc(Cl)c2)nc1-c1ccc(Cl)cc1Cl,240
8,COc1ccc(-c2nc(N)c(CN)c(-c3ccc(Cl)cc3Cl)n2)cc1,100
9,Cc1ccc(-c2nc(N)c(CN)c(-c3ccc(Cl)cc3Cl)n2)cc1,90
10,NCc1c(N)nc(-c2ccccc2)nc1-c1ccc(F)cc1,18000
11,COc1ccccc1-c1nc(-c2ccccc2)nc(N)c1CN,1500
12,NCc1c(N)nc(-c2ccc(C(F)(F)F)cc2)nc1-c1ccc(Cl)cc1Cl,180
13,COc1cccc(-c2nc(N)c(CN)c(-c3ccc(Cl)cc3Cl)n2)c1,340
14,Cc1cccc(-c2nc(N)c(CN)c(-c3ccc(Cl)cc3Cl)n2)c1,0.9
15,NCc1c(N)nc(-c2ccccc2)nc1-c1ccccc1C(F)(F)F,14000
16,NCc1c(N)nc(-c2ccc(Cl)cc2)nc1-c1ccc(Cl)cc1Cl,53
17,Cc1ccccc1-c1nc(N)c(CN)c(-c2ccc(Cl)cc2Cl)n1,1750
18,NCc1c(N)nc(-c2ccccc2)nc1-c1ccccc1Cl,2500
19,NCc1c(N)nc(-c2ccc(F)cc2)nc1-c1ccc(Cl)cc1Cl,0.2

# The remaining compounds from weak to strong by IC50, led by results:
row,IC50 [nM],Structure (SMILES)
1,47000,COc1ccc(-c2nc(-c3ccccc3)nc(N)c2CN)cc1
2,42000,NCc1c(N)nc(-c2ccccc2)nc1-c1ccccc1
3,40000,NCc1c(N)nc(-c2ccccc2)nc1-c1cccc(F)c1
4,31000,NCc1c(N)nc(-c2ccccc2)nc1-c1cccc(Cl)c1
5,20000,Cc1cccc(-c2nc(-c3ccccc3)nc(N)c2CN)c1
6,14000,NCc1c(N)nc(-c2ccccc2)nc1-c1ccccc1F
7,1100,NCc1c(N)nc(-c2ccccc2)nc1-c1ccc(C(F)(F)F)cc1
8,1000,Cc1ccc(-c2nc(-c3ccccc3)nc(N)c2CN)cc1
9,350,COc1ccccc1-c1nc(N)c(CN)c(-c2ccc(Cl)cc2Cl)n1
10,10,NCc1c(N)nc(-c2ccccc2)nc1-c1ccc(Cl)cc1Cl
11,3,NCc1c(N)nc(-c2ccc(F)c(F)c2)nc1-c1ccc(Cl)cc1Cl
